Literature values, collected in patent US20200129471A1, “USE OF CANNABIS TO TREAT FIBROMYALGIA, METHODS AND COMPOSITIONS THEREOF” (ONE WORLD CANNABIS LTD, priority 2015, published 2020).

Settings: administered to humans for 30 days

**Q.** With `C=C(C)[C@@H]1CCC(C)=C[C@H]1c1c(O)cc(CCCCC)cc1O` [CBD, cannabidiol] as the molecule, how does the tolerability read?
**A.** The tolerability was “tolerated”.
